Marks after values point to notes of the source that are not given here.
How the values were obtained:
Format in all cases: cell-based, HBV genotype A
[1] = test system: WT HBV-DNA construct transfected into HepG2 cells; experiment: transient transfection cell culture assay, extracellular HBV-DNA by real-time PCR, WT construct
Protocol: (§1) An extended (1.28×) HBV genome was cloned (HBV genotype A, subtype adw2) into a pBluescript KS (+) plasmid (Stratagene, La Jolla, Calif., USA), as described by Tacke et al, J Virol 78:8524-8535, 2004.
HepG2 cells were grown in Eagles minimum essential medium (LGC Promochem, Middlesex, UK), supplemented with 10% v/v fetal bovine serum at 37° C. and 5% v/v CO2. For cDNA transfections, 3×10^5 cells were seeded to semi-confluence onto each well of a 6-well plate and allowed to adhere overnight. […]
(§2) HBV viral particles from the cell culture supernatant were precipitated using 26% polyethylene glycol (PEG 8000, Sigma, St. Louis, Mo., USA), followed by DNase 1 digestion (Takara, Shiga, Japan). […] A quantitative real-time PCR was used to quantify HBV-DNA. Briefly, a 189-bp fragment of the X region was amplified in a LightCycler system (Roche), using the QuantiTect Probe PCR kit (Qiagen) and the following probes and primers: 3FL-XHybprobe (5′-ACGGGGCGCACCTCTCTTTACGCGG fluorescein-3′ (SEQ ID NO:23)), 5LC-Xhybprobe (5′LCRed 640 nm-CTCCCCGTCTGTGCCTTCTCATCTGC PH-3′ (SEQ ID NO:24)), X sense (5′-GAC GTC CTT TGT YTA CGT CCC GTC-3′ (SEQ ID NO:25)), and X antisense (5′-TGCAGAGGTGAAGCGAAGTGCACA-3′ (SEQ ID NO:26)). […]
Extracellular HBV-DNA was examined by real-time PCR, 5 days post-transfection and IC50 values were calculated.

[2] = test system: L180M, A194T, M204V (LMAT) mutant HBV-DNA construct transfected into HepG2 cells; experiment: transient transfection cell culture assay, extracellular HBV-DNA by real-time PCR, rtL180M+rtA194T+rtM204V (LMAT) construct
Excerpt: as §1
(§3) Three mutated HBV plasmids were constructed using a Quikchange (Registered) II site-directed mutagenesis kit (Stratagene, La Jolla, Calif., USA). Plasmids contained either mutations rtL180M and rtM204V (LM), rtL180M, rtM204V and rtA194T (LMAT), or rtA194T (AT). […]
as §2
(§4) After adjusting for transfection efficiency, IC50 values were calculated from the HBV viral load using the following formula (Vandamme et al, Antiviral methods and protocols: 231, 2000): log IC50=log conc. […]

[3] = test system: A194T (AT) mutant HBV-DNA construct transfected into HepG2 cells; experiment: transient transfection cell culture assay, extracellular HBV-DNA by real-time PCR, rtA194T (AT) construct
Excerpt: as §1, §3, §2, §4

[4] = test system: L180M + M204V (LM) mutant HBV-DNA construct transfected into HepG2 cells; experiment: transient transfection cell culture assay, extracellular HBV-DNA by real-time PCR, rtL180M+rtM204V (LM) construct
Excerpt: as §1, §3, §2, §4

With `CC(C)OC(=O)OCOP(=O)(CO[C@H](C)Cn1cnc2c(N)ncnc21)OCOC(=O)OC(C)C.O=C(O)/C=C/C(=O)O` [tenofovir, Tenofovir disoproxil fumarate] the “Fold IC50, extracellular DNA” value ([1]; WT HBV construct (reference)) was 1^, the IC50 ([1]; WT HBV construct, 5 days post-transfection) was 12.4 µM and the IC50 ([2]; M204V (LMAT) construct, HepG2 cells, value above the cell toxic level of tenofovir) was > 120 µM. The “Fold IC50, extracellular DNA” value ([2]; M204V (LMAT) versus WT, >10-fold = resistance) was >10*^b, the IC50 ([3]; A194T (AT) construct, HepG2 cells, 5 days post-transfection) was 95 µM and the “Fold IC50, extracellular DNA” value ([3]; A194T (AT) versus WT, 5-10 fold = partial resistance) was 7.6^a. For the same molecule, the IC50 ([4]; L180M + M204V (LM) construct, HepG2 cells, 5 days post-transfection) was 71 µM and the “Fold IC50, extracellular DNA” value ([4]; L180M + M204V (LM) versus WT, 5-10 fold = partial resistance) was 5.7^a.
